Experimental findings from patent US12404275B2, “Pyrazolopyrazine derived compounds, pharmaceutical composition and use thereof” (PrimeGene (Beijing) Co., Ltd., priority 2019, dated 2025) are described below.

Holding throughout (assay type): biochemical
In assay [1] the target is Tyk2 (Homo sapiens, UniProt P29597). Kind of assay: Mobility shift assay, inhibitory activity on Tyk2 kinase. Conditions: mobility shift assay; Tyk2 2.5 nM; ATP 1 mM; 3 μM Kinase Substrate 30. Here is the method: (§1) Inhibitory Activities of the Compounds on JAK1, JAK2, JAK3 and Tyk2 (IC50)
(§2) The inhibitory activity of compounds on JAK family kinase was analyzed with Mobility shift assay. The screening platform is MSA based microfluidic chip technology, which applies the basic concept of capillary electrophoresis to microfluidic environment. The substrate used in the experiment is a poly-peptide labeled with fluorescent. Under the catalysis of kinase in the reaction system, the substrate is transformed into a product, with the charge changed accordingly. MSA technology could detect the substrate and the product with different charge separately.
(§3) A compound (powder) was dissolved in 100% DMSO to prepare a 10 mM storage solution. […] Detection in duplicate. Baricitinib (Selleckchem, Cat. S2851) was used as positive control. The serially diluted compound was mixed with JAK1/JAK2/JAK3/Tyk2 kinase (Cama, Cat. 08-144/08-045/08-046/08-147) with final concentration of 5 nM/0.125 nM/0.5 nM/2.5 nM in a Optiplate-384F plate and incubated at room temperature for 10 minutes. After that, ATP with final concentration of 1 mM and 3 μM Kinase Substrate 30 (GL Biochem, Cat. 117885) were added and mixed well. The reaction was carried out at room temperature for 20 min. Stop test solution was added to stop the reaction and the conversion rate was read by Caliper EZ Reader II.
(§4) Conversion %_sample: the conversion rate reading of the sample;
(§5) Conversion %_min: mean value of negative control, representing the conversion rate reading without kinase activity;
(§6) Coversion %_max: mean value of positive control, representing the conversion rate reading without compound inhibition.

Assay [2] concerns Tyk2. The description is as above. Conditions: ratio of JAK2 IC50 to TyK2 IC50. On the procedure:
as §1, §2, §3, §4, §5, §6

In a further assay the target is JAK2 (Homo sapiens, UniProt O60674). Description: Mobility shift assay, inhibitory activity on JAK2 kinase. Conditions: JAK2 0.125 nM, ATP 1 mM, 3 μM Kinase Substrate 30. Here is the method: as §1, §2, §3, §4, §5, §6

For `Cn1cc(-c2cn3nccc3c(-c3cn(C4(CC#N)CN(CC#N)C4)nc3N)n2)cn1` [Example 1, 2,2′-(3-(3-amino-4-(6-(1-methyl-1H-pyrazol-4-yl)pyrazolo[1,5-a]pyrazine-4-yl)-1H-pyrazol-1-yl)azetidine-1,3-diyl)diacetonitrile], the figures for the half-maximal inhibitory concentration (IC50) on Tyk2 [1] and on JAK2 were 0.42 nM and 88 nM, respectively. Besides, in the assay with Tyk2 [2], the “Selectivity of JAK2/TyK2” value was found to be 210.
On the same counts, the results for `CCS(=O)(=O)N1CC(CC#N)(n2cc(-c3nc(-c4cnn(C)c4)cn4nccc34)c(N)n2)C1` [Example 2, 2-(3-(3-amino-4-(6-(1-methyl-TH-pyrazol-4-yl)pyrazolo[1,5-a]pyrazin-4-yl)-1H-pyrazol-1-yl)-1-(ethylsulfonyl)azetidin-3-yl)acetonitrile] are 0.38 nM, 64 nM and 168.
For `CC(C)S(=O)(=O)N1CC(CC#N)(n2cc(-c3nc(-c4cnn(C)c4)cn4nccc34)c(N)n2)C1` [Example 3, 2-(3-(3-amino-4-(6-(1-methyl-1H-pyrazol-4-yl)pyrazolo[1,5-a]pyrazin-4-yl)-1H-pyrazol-1-yl)-1-(isopropylsulfonyl)azetidin-3-yl)acetonitrile] the same measures were 2.1 nM, 77 nM and 36.6.
In the case of `CC(C)S(=O)(=O)N1CC(CC#N)(n2cc(-c3nc(-c4cnn(C)c4)cn4ncc(C#N)c34)c(N)n2)C1` [Example 4, 4-(3-amino-1-(3-(cyanomethyl)-1-(isopropylsulfonyl)azetidin-3-yl)-1H-pyrazol-4-yl)-6-(1-methyl-1H-pyrazol-4-yl)pyrazolo[1,5-a]pyrazine-3-carbonitrile], the half-inhibitory concentration (IC50) at Tyk2 [1] was 1760 nM.
Take `Cn1cc(-c2cn3nccc3c(-c3cn([C@]4(CC#N)C[C@@H](C#N)C4)nc3N)n2)cn1` [Example 9, (1r,3r)-3-(3-amino-4-(6-(1-methyl-1H-pyrazol-4-yl)pyrazolo[1,5-a]pyrazin-4-yl)-1H-pyrazol-1-yl)-3-(cyanomethyl)cyclobutyl-1-carbonitrile]: the IC50 at Tyk2 [1] was determined as 0.17 nM; at JAK2, 14 nM.
On the same counts, the results for `Cn1cc(-c2cn3nccc3c(-c3cn([C@]4(CC#N)C[C@H](C#N)C4)nc3N)n2)cn1` [Example 10, (1s,3s)-3-(3-amino-4-(6-(1-methyl-1H-pyrazol-4-yl)pyrazolo[1,5-a]pyrazin-4-yl)-1H-pyrazol-1-yl)-3-(cyanomethyl)cyclobutyl-1-carbonitrile] are 0.13 nM and 0.25 nM.
As for `CNc1nn([C@]2(CC#N)C[C@@H](C#N)C2)cc1-c1nc(-c2cnn(C)c2)cn2nccc12` [Example 38, (1r,3r)-3-(cyanomethyl)-3-(4-(6-(1-methyl-1H-pyrazol-4-yl)pyrazolo[1,5-a]pyrazin-4-yl)-3-(methylamino)-1H-pyrazol-1-yl)cyclobutane-1-carbonitrile], the half-inhibitory concentration (IC50) worked out at 0.33 nM at Tyk2 [1] and 6.7 nM at JAK2. For the same compound, in the assay on Tyk2 [2], the “Selectivity of JAK2/TyK2” value was determined as 20.
As to `CN(C)c1nn([C@]2(CC#N)C[C@@H](C#N)C2)cc1-c1nc(-c2cnn(C)c2)cn2nccc12` [Example 39, (1r,3r)-3-(cyanomethyl)-3-(3-(dimethylamino)-4-(6-(1-methyl-1H-pyrazol-4-yl)pyrazolo[1,5-a]pyrazin-4-yl)-1H-pyrazol-1-yl)cyclobutane-1-carbonitrile], the figures for the IC50 on Tyk2 [1] and on JAK2 were 3.7 nM and 200 nM, respectively. The “Selectivity of JAK2/TyK2” value in the assay with Tyk2 [2] came out at 54.
Turning to `CC(=O)Nc1nn([C@]2(CC#N)C[C@@H](C#N)C2)cc1-c1nc(-c2cnn(C)c2)cn2nccc12` [Example 40, N-(1-((1r,3r)-3-cyano-1-(cyanomethyl)cyclobutyl)-4-(6-(1-methyl-1H-pyrazol-4-yl)pyrazolo[1,5-a]pyrazin-4-yl)-1H-pyrazol-3-yl)acetamide], at Tyk2 [1], the IC50 was found to be 139 nM.
On to `Cn1cc(-c2cn3ncnc3c(-c3cn([C@]4(CC#N)C[C@@H](C#N)C4)nc3N)n2)cn1` [Example 41, (1r,3r)-3-(3-amino-4-(6-(1-methyl-1H-pyrazol-4-yl)-[1,2,4]triazolo[1,5-a)pyrazin-8-yl)-1H-pyrazol-1-yl)-3-(cyanomethyl)cyclobutane-1-carbonitrile], for which the half-inhibitory concentration (IC50) at Tyk2 [1] turned out to be 37 nM.
`Cn1cc(-c2cc(-c3cn([C@]4(CC#N)C[C@@H](C#N)C4)nc3N)c3ccnn3c2)cn1` [Example 42, (1r,3r)-3-(3-amino-4-(6-(1-methyl-1H-pyrazol-4-yl)pyrazolo[1,5-a]pyridin-4-yl)-1H-pyrazol-1-yl)-3-(cyanomethyl)cyclobutane-1-carbonitrile]: at Tyk2 [1], the IC50 amounted to 375 nM.
Same read-out and setting: to `Cn1cc(-c2cc(-c3cn([C@]4(CC#N)C[C@H](C#N)C4)nc3N)c3ccnn3c2)cn1` [Example 43, (is, 3s)-3-(3-amino-4-(6-(1-methyl-TH-pyrazol-4-yl)pyrazolo[1,5-a]pyridin-4-yl)-1H-pyrazol-1-yl)-3-(cyanomethyl)cyclobutane-1-carbonitrile] belongs 43 nM; to `Cn1cc(-c2cn3nccc3c(-c3cn([C@]4(CC#N)C[C@H](C#N)C4)c4ccncc34)n2)cn1` [Example 47, (1s,3s)-3-(cyanomethyl)-3-(3-(6-(1-methyl-1H-pyrazol-4-yl)pyrazolo[1,5-a]pyrazin-4-yl)-1H-pyrrolo[3,2-c]pyridin-1-yl)cyclobutane-1-carbonitrile], 186 nM.
For `Cn1cc(-c2cn3nccc3c(-c3cn([C@]4(CC#N)C[C@@H](C#N)C4)c4ccncc34)n2)cn1` [Example 48, (1r,3r)-3-(cyanomethyl)-3-(3-(6-(1-methyl-1H-pyrazol-4-yl)pyrazolo[1,5-a]pyrazin-4-yl)-1H-pyrrolo[3,2-c]pyridin-1-yl)cyclobutane-1-carbonitrile], the concentration for half-maximal inhibition (IC50) on Tyk2 [1] is 0.36 nM; at JAK2, 8.1 nM. Also, the “Selectivity of JAK2/TyK2” value with Tyk2 [2] came out at 22.5.
Regarding `Cn1cc(-c2cn3nccc3c(-c3cn([C@]4(CC#N)C[C@H](C#N)C4)c4ncncc34)n2)cn1` [Example 49, (1s,3s)-3-(cyanomethyl)-3-(5-(6-(1-methyl-1H-pyrazol-4-yl)pyrazolo[1,5-a]pyrazin-4-yl)-7H-pyrrolo[2,3-d]pyrimidin-7-yl)cyclobutane-1-carbonitrile], at Tyk2 [1], the IC50 amounted to 118 nM.
Consider `Cn1cc(-c2cn3nccc3c(-c3cn([C@]4(CC#N)C[C@H](C#N)C4)c4ncncc34)n2)cn1` [Example 50, (1r,3r)-3-(cyanomethyl)-3-(5-(6-(1-methyl-1H-pyrazol-4-yl)pyrazolo[1,5-a]pyrazin-4-yl)-7H-pyrrolo[2,3-d]pyrimidin-7-yl)cyclobutane-1-carbonitrile], for which the IC50 on Tyk2 [1] came out at 0.41 nM; at JAK2, 10 nM. Besides, the “Selectivity of JAK2/TyK2” value in the assay with Tyk2 [2] came out at 24.4.
